Source: US7756643B2, “Method for determining the biological effect and/or activity of at least one drug, chemical substances and/or pharmaceutical composition based on their effect on the methylation status of DNA” (Epigenomics AG, priority 2001, dated 2010)
Where no end group is shown, it is not given here.

Legend:
[1] = tested on: T cells; settings: through down-regulation of Fas ligand (FasL); cited from earlier work
[2] = tested on: CpGs of the Fas-L gene; experiment: Peptide library screening: methylation status of CpGs in a T-cell line; type: cell-based; settings: 10 days, versus untreated control
Experimental: A peptide library was prepared in a 96-well culture plate which contained overlapping peptide fragments derived from the peptide sequence of human serum albumine (HSA). As positive controls, each of vasoactive intestinal peptide (VIP) and pituitary adenylate cyclase-activating polypeptide (PACAP) was added in one of the wells.
A T-cell line (example?) was incubated together with the peptides and VIP or PACAP. After 10 days, the cells of the VIP/PACAP and HSA peptide treated as well as untreated control cell line cultures were collected by centrifugation and the chromosomal DNA was prepared using QIAamp DNA Mini Kit as recommended by the manufacturer (Quiagen, Hilden, Germany).
Subsequently, the chromosomal DNAs were bisulphite treated as published, for example, according to Olek et al. 6 different multiplex PCR reactions were performed on the 3 bisulphite DNA samples (untreated control, HSA and VIP/PACAP treated samples) using Cy5-labelled primer. The products of the methylation specific PCR reactions performed on the same DNA samples were combined. These complex mixtures of 64 PCR products derived from the three DNA samples were comparatively hybridised onto oligo micro arrays representing 256 CpG and the methylation statuses of the CpGs were analysed according to a method described in WO 99/28498.

Substance	protection of T cells from activation-induced cell death [1]	methylation status of CpGs of the Fas-L gene [2]
vasoactive intestinal peptide (HSDAVFTDNYTRLRKQMAVKKYLNSILN; ends and bridges not checked; UniProt P01282 125-152, looked up) [VIP, positive control peptide]	protect T cells from activation-induced cell death	significantly changed
pituitary adenylate cyclase-activating polypeptide (HSDGIFTDSYSRYRKQMAVKKYLAAVLGKRYKQRVKNK; ends and bridges not checked; UniProt P18509 132-169, looked up) [PACAP, positive control peptide]	protect T cells from activation-induced cell death	significantly changed
